In patent US20020147155A1, “Prevention and treatment of endometriosis with aryl hydrocarbon receptor binding ligands” (priority 2001, published 2002):

How the values were obtained:
uterus = conditions: animal experiment; cited from earlier work
endometriosis = conditions: rodents and monkeys; cited from earlier work
endometriotic tissue = test: Surgically induced endometriosis (autotransplanted endometrial fragments) in cynomolgus monkeys, laparoscopy; format: in vivo, Macaca fascicularis; conditions: for Endometriotic lesion diameter: control 11.4±1.6
Source text: Numerous animal models of endometriosis have been developed involving rabbits (Rock, J A et al., Intraocular endometrium in the rabbit as a model for endometriosis, Fertil. Steril. 59:232-35 [1993]), rodents (Sakura, Y et al., Histological studies on the therapeutic effect of sustained-release microspheres of a potent LHRH agonist (leuprorelin acetate) in an experimental endometriosis model in rats, Endocrinol. Jpn. 37:719-729 [1990]; Rajkumar, K et al., The rat as an animal model for endometriosis to examine recurrence of ectopic endometrial tissue after regression, Fertil. Steril. 53:921-25 [1990]; Sudo, K et al., Effects of TAP-144-SR, a sustained-release formulation of a potent GnRH agonist, on experimental endometriosis in the rat, Endocrinol. Jpn. […] Gynecol. […] Steril. […] An. Sci. 33 :P15 [1994]; Cummings, A M and Metcalf, J L, Induction of endometriosis in mice: a new model sensitive to estrogen, Reprod. Toxicol. 9:233-38 [1995]; Cummings, A M et al., Promotion of endometriosis by 2,3,7,8-tetrachlorodibenzo-p-dioxin in rats and mice: time-dose dependence and species comparison, Toxicol. Appl. Pharmacol. 138:131-39 [1996]; Foster, W G et al., Morphologic characteristics of endometriosis in the mouse model: application to toxicology, Can. J. Physiol. Pharmacol. 75:1188-96 [1997]; Aoki, D et al., Successful heterotransplantation of human endometrium in SCID mice, Obstet. Gynecol. 83:220-28 [1994]; Bruner, K L et al., Suppression of matrix metalloproteinases inhibits establishment of ectopic lesions by human endometrium in nude mice, J. Clin. Invest. 99:2851-57 [1997]), and non-human primates (Schenken, R S et al., Etiology of infertility in monkeys with endometriosis: luteinized unruptured follicles, luteal phase defects, pelvic adhesions, and spontaneous abortions, Fertil. Steril. 41:122-30 [1984]; Rier, S E et al., Endometriosis in rhesus monkeys (Macaca mulatta) following chronic exposure to tetrachlorodibenzo-p-dioxin, Fund. Appl. Toxicol. 21:433-41 [1993]; D'Hooghe, T D et al., Development of a model of retrograde menstruation in baboons (Papio anubis), Fertil. Steril. 62:635-38 [1994]). […] Therefore, a non-human primate model was selected, because monkeys and baboons spontaneously develop endometriosis, the pathophysiology of the disease resembles humans and abundant tissue can be obtained for study purposes. In particular, nulliparous female cynomolgus monkeys (Macaca fascicularis) were the animals chosen.
The effects of subchronic exposure to an AhR binding ligand was examined in a non-human primate model. Endometrial fragments were surgically autotransplanted to the pelvic cavity of nulliparous cynomolgus monkeys (Macaca fascicularis, n=23). Briefly, each monkey's own endometrial tissue was obtained during a laparotomy in which the body of the uterus was opened in the anterior midline. A strip of endometrium was removed by careful dissection and divided into a number of equal pieces, one of which was used for histopathology to confirm the presence of both endometrial epithelium and stroma. […]
The monkeys were divided into 4 treatment groups and dosed five days a week with gelatin capsules containing 0, 1, 5 or 25 ng/kg body mass of AhR binding ligand 2,3,7,8-tetrachlorodibenzo-p-dioxin (TCDD), mixed with glucose. Endometriotic implant survival and diameter were monitored by laparoscopy at intervals of one, three, six and 12 months.

estrogen metabolites = conditions: oral administration, women; cited from earlier work
[1] = target: T1, aryl hydrocarbon receptor (Homo sapiens, UniProt P35869); conditions: in culture; cited from earlier work
T1 sequence (P35869 11-848): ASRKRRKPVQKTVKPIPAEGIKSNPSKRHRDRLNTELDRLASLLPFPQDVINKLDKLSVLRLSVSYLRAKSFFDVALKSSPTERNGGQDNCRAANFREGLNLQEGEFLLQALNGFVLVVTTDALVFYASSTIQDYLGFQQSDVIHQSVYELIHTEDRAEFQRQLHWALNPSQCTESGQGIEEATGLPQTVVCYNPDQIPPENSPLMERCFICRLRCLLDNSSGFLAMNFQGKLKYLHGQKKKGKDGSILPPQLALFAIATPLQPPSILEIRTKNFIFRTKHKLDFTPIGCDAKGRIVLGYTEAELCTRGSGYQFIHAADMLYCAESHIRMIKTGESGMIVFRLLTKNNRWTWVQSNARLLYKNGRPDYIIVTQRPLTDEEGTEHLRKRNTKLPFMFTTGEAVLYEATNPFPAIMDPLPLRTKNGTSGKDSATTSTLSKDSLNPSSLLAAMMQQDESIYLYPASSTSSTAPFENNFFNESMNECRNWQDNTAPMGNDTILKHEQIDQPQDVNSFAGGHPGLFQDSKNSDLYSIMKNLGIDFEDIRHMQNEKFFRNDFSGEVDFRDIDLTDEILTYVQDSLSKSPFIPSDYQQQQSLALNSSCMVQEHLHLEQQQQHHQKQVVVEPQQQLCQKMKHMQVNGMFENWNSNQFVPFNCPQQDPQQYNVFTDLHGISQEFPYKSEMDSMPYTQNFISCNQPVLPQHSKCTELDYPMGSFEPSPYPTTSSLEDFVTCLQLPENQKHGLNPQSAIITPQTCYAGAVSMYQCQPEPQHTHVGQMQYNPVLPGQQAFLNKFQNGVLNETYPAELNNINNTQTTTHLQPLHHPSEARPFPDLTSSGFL

SMILES: Fc1ccc2[nH]cc(Cc3c[nH]c4ccccc34)c2c1 [5-fluoro-diindolylmethane]
- Uterine wet weight as a percentage of body weight (uterus): increase

SMILES: Clc1cc2c(cc1Cl)Oc1cc(Cl)c(Cl)cc1O2 [TCDD, 2,3,7,8-tetrachlorodibenzo-p-dioxin]
- Effect on endometriosis (endometriosis): promoted endometriosis
- Endometriotic lesion diameter (endometriotic tissue; 0.71 ng/kg/day TCDD, oral gelatin capsules): 4.2±0.9 mm
- Endometriotic lesion survival rate (endometriotic tissue; 0.71 ng/kg/day TCDD, oral, control 16%): 20%
- Endometriotic lesion survival rate (endometriotic tissue; 3.57 ng/kg/day TCDD for one year, oral, control 16.0%): 26.7%
- Endometriotic lesion diameter (endometriotic tissue; 17.86 ng/kg/day TCDD for one year, oral): 14.5±0.2 mm
- Endometriotic lesion survival rate (endometriotic tissue; 17.86 ng/kg/day TCDD for one year, oral, control 16.0%): 33.3%

SMILES: OCc1c[nH]c2ccccc12 [indole-3-carbinol]
- Levels of estrogen metabolites (estrogen metabolites): reduce levels of estrogen metabolites

SMILES: NCCc1c[nH]c2ccccc12 [tryptamine]
- Binding to and activation of aryl hydrocarbon receptor [1]: bind to and activate

SMILES: N[C@@H](Cc1c[nH]c2ccccc12)C(=O)O [tryptophan]
- Binding to and activation of aryl hydrocarbon receptor [1]: bind to and activate
